Results: PMC7810697, “Sarcolipin alters SERCA1a interdomain communication by impairing binding of both calcium and ATP” (Scientific Reports, 2021)
Ends that are not written are not given here. * marks the point of attachment. Palmitoyl = CCCCCCCCCCCCCCCC(=O)*

What was measured:
SERCA1a [1] = settings: cited from earlier work
Text: Effect on the turnover is less clear as it seems to highly depend on the system used for functional characterization. […] This post-translational modification is also present in pig SLN and presumably in a few other mammals and birds, as judged from the amino-acid sequences. Among the other hundred seq ...

SERCA1a [2] = settings: cross-linking experiments; cited from earlier work
Text: An analysis of all the published data on biochemical characterization of PLB or SLN highlights heterogeneity in the results.

SERCA1a [3] = settings: cited from earlier work; remark: listed apart in the source
Text: Besides its various roles in protein signalling and addressing, palmitoylation can also regulate oligomerisation processes of membrane proteins. Recent work has shown that other P-type ATPases regulatory subunits like phospholamban (PLB) and phospholemman (PLM) are palmitoylated[16],[17]. Acylation of PLB and PLM is functionally relevant by having an impact on the oligomerisation of the peptides, their association with their dedicated pumps (Ca^2+-ATPase or Na+, K+-ATPase, respectively) and on their lifetime.

[4] = system: recombinant purified SERCA1a (recS1a); assay: Limited proteolysis with proteinase K (SDS-PAGE); assay type: biochemical, rabbit (expressed in S. cerevisiae); settings: Ca2.E1 (1 mM calcium) and E2.Tg (EGTA + thapsigargin); recS1a:pSLN 1:10 mole:mole; 0.3 mg/mL proteinase K, 5-30 min, 20 °C
Procedure: Yeast-expressed and purified SERCA1a (recS1a) was supplemented with SLN at a mole:mole ratio of 1:10 recS1a:SLN. In absence of SLN, recS1a was supplemented with 0.07 mg/mL C12E8, an amount that corresponds to the detergent brought with chemically synthesized SLN. After 30 min at 20 °C, samples were supplemented with either 1.1 mM EGTA (Ca^2+free ~ 1 mM), or 50 mM EGTA (Ca^2+free ~ 150 nM) and 0.01 mg/mL Tg. After an additional incubation for 10 min at 20 °C, proteolysis was achieved by addition of 0.3 mg/mL proteinase K. Proteolysis was stopped by addition of 1 mM PMSF and incubation on ice for 10 min. After proteolysis arrest, samples were diluted twice in a 4 M-urea containing denaturation buffer, boiled for 60 s, and about 0.75 µg protein were loaded on a 9% SDS-PAGE prepared in the presence of 1 mM Ca^2+[32]. After electrophoresis, gels were stained with Coomassie blue.

[5] = target: T1, recombinant SERCA1a (recS1a) (Oryctolagus cuniculus, UniProt P04191); assay: Steady-state ATPase activity, enzyme-coupled assay; assay type: biochemical, rabbit (expressed in S. cerevisiae)
T1 construct: BAD (biotin acceptor domain) (C, cleaved yes); made in house; host or cells: Saccharomyces cerevisiae
Procedure: resuspended in a large volume of pure water and lyophilized to evaporate most of the TFA. The rinsed powder was then suspended in presence of 10 mM HCl to exchange the anionic residual TFA that may interact with the positive charges of the peptide for chloride. This suspension was lyophilized again.
Three additional cycles of – dissolving in pure water / lyophilisation – will allow to eliminate traces of TFA and to get back to a pH compatible with functional tests. For final solubilisation of SLN in detergent, powder was then dissolved in 50% TFE and an amount of detergent to reach a 100:1 mole:mole detergent:SLN ratio. Here, we used C12E8 as it is fully compatible with functional characterization of SERCA1a 23. This suspension was then lyophilized again to evaporate TFE.
Sarcolipins (Palm-SLN or SLN) were finally resuspended at 0.8 mg/mL (about 200 µM) in a 10 mM potassium phosphate buffer pH 7.4, in the presence of 2.5 mg/mL C12E8.
Expression and Purification of recombinant SERCA1a (recS1a)
The yeast expression plasmid pYeDP60-SERCA1a-BAD (WT) and expression in Saccharomyces cerevisiae was described previously 30. Yeast membranes were solubilized by DDM for subsequent purification of recombinant Ca2+-ATPase by Streptavidin affinity chromatography 31. Purified recombinant SERCA1a was recovered in a buffer containing 50 mM MOPS-Tris pH7, 100 mM KCl, 5 mM MgCl2, 2.1 mM CaCl2, 40 % glycerol (v/v) and 0.5 mg/mL DDM, together with some thrombin remaining from the elution procedure. The protein concentration in the purified fraction was in the 0.05 to 0.15 mg/mL range depending on the batch. […]
Steady-state ATPase activity measurements
Measurements were performed using classical enzyme coupled assay. We measured the rate of NADH oxidation in the presence of 0.1 mg/mL lactate deshydrogenase, 0.05 mg/mL pyruvate kinase, 1 mM phosphoenolpyruvate, 0.25 mM NADH (protocol was adapted from 22) and in the additional presence of 2 mg/mL C12E8 to limit time-dependent inactivation of the purified SERCA1a 20,23.

T1 sequence (P04191 1-994 isoform P04191-2): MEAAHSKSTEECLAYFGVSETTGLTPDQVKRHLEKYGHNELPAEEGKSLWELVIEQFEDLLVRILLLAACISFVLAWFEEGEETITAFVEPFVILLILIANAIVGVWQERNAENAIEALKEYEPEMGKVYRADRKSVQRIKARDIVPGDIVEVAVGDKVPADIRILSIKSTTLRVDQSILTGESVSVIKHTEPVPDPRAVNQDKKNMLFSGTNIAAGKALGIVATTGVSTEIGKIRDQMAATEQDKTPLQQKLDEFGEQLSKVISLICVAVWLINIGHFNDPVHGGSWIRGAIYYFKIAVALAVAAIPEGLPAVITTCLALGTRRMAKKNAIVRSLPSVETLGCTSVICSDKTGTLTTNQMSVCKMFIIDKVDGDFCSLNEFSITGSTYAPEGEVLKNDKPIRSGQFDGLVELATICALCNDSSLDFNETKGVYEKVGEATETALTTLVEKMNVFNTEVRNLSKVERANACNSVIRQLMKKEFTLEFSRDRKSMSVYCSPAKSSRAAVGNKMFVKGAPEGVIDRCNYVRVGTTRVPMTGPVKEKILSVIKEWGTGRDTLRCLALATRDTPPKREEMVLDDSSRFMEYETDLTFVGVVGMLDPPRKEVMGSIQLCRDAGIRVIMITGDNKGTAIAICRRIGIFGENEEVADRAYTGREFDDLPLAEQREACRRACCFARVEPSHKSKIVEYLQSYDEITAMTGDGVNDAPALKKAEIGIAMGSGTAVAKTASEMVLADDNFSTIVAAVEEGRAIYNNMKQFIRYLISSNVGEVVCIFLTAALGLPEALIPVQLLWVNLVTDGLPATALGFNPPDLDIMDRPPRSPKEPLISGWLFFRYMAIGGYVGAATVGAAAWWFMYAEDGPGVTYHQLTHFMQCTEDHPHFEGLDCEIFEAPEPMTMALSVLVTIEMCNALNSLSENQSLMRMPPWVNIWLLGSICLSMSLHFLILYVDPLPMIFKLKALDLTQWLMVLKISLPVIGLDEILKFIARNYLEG

effect on proteinase K proteolysis [4] | maximal turnover ([5]; recS1a + Palm-SLN, recS1a alone 2.88 +/- 0.12) | affinity for calcium and maximum turn-over ([5]; recS1a in absence or presence of pSLN, enzyme-coupled assay) | Ca1/2 (ATPase activity), recS1a + pSLN ([5]; steady state, NADH-coupled assay, 2 mg/mL C12E8, three independent experiments, p=0.248) | Substance | apparent affinity for calcium in presence of SLN (SERCA1a [1]; 0.35 µM in absence of SLN) [µM] | Vmax in presence of SLN, increase reported by some authors (SERCA1a [1]; % of Vmax measured in absence of SLN, ref 13 and Supplementary Table 1) | cross-linking interaction with SERCA1a (SERCA1a [2]) | effect of phosphorylation of SLN:Thr5 on SERCA1a inhibition (SERCA1a [3])
– | – | – | – | SLN: chemically synthesized non-palmitoylated rabbit sarcolipin; in cited literature results sarcolipin in general (MERSTRELCLNFTVVLITVILIWLLVRSYQY; UniProt P42532 1-31, looked up) | 0.51 | up to 140% | interaction of SLN with SERCA1a at all the major steps of the catalytic cycle | loss of inhibition of SERCA1a
drastically slowed | 2.74 +/- 0.04 µmol ATP/mg/min | no difference was observed | 0.13 +/- 0.06 µM | pSLN: chemically synthesized S-palmitoylated rabbit sarcolipin, 31-residue single-spanning membrane peptide, palmitoylated on Cys9 (MERSTRELC(Palmitoyl)LNFTVVLITVILIWLLVRSYQY; UniProt P42532 1-31, looked up) | – | – | – | –
